Values after ≈ are worked out from the molar mass of the structure shown. Like-named read-outs stand apart in the source and are kept apart here. Residues, ends and D or L forms follow the SMILES beside them.
Tests used:
[1] = target: ETa (Homo sapiens (Human), UniProt P25101); assay: Calcium flux assay on ETa cell line; type: cell-based; details: ETa/HEK293, calcium flux, endothelin-1 agonist
Procedure: (§1) Test materials: a) cell line: ETa/HEK293; b) vehicles: DMEM, Invitrogen (Cat #11960); Geneticin, Invitrogen (Cat #10131); c) reagent: Fluo-4 Direct, (Invitrogen, Cat #F10471); d) instruments: 384 well Poly-D-Lysine protein coating plate, Greiner #781946; Vi-cell XR Cell Viability Analyzer, Beckman Coulter; Incubator, Thermo.
For the employed agonist endothelin factor (endothelin-1, ET-1) master plate: the agonist was diluted from 50 μM to 15 μM with the test buffer solution.
For antagonist (BQ123, Am J Physiol. 1994 April; 266 (4 Pt 2): H1327-31.) plates and the compound plates: the antagonist and the tested compounds were diluted with DMSO at a gradient ratio of 1:4 to obtain 10 concentration points. Afterwards, 900 nL of each compound solution was transferred to the master plate and 30 μL of the test buffer solution was added. • a) The cell line was removed from the incubator, and 20 μL of 2X Fluo-4 Direct™ buffer solution was added gently by a pipette to a 384-well cell culture plate. • b) The cell plate was incubated at 37° C. for 50 min in the environment of 5% CO2, and then incubated at room temperature for 10 min. • c) The cell plate was removed from the incubator and placed in FLIPR. The compound plates and the tip box were placed in FLIPR. • d) Regarding the EC80 plate: • 1) Operations were conducted on […]. • 2) 10 μL of compound solution was transferred from the EC80 master plate to the cell plate. • 3) Fluorescence signals were read. • 4) The read signals were counted, and the EC80 value of each cell line was calculated using FLIPR. • 5) For the concentration of the compound plate, a solution having a concentration 6 times that of the reference agonist EC80 was formulated. • e) Regarding the compound plate: • 1) Operations were conducted on […]. • 2) 10 μL of compound was transferred to the cell plate. • 3) Fluorescence signals were read. • 4) 10 μL of solution having a concentration 6 times that of the reference agonist EC80 was transferred to the cell plate. • 5) Fluorescence signals were read. • f) Data analysis by Prism

[2] = target: AT1 (Homo sapiens (Human), UniProt P30556); assay: Calcium flux assay on AT1 cell line; type: cell-based; details: AT1/HEK293, calcium flux, angiotensin II agonist
AT1, sequence (P30556 whole entry): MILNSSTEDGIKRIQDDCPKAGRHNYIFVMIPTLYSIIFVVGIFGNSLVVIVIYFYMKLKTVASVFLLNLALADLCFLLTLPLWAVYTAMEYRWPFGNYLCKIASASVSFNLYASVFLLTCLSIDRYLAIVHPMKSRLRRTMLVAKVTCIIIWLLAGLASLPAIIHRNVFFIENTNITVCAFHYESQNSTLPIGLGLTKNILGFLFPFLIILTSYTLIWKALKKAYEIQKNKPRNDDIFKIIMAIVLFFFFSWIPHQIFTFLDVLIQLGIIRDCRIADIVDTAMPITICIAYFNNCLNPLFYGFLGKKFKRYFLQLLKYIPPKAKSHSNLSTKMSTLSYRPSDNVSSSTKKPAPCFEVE
Procedure: as §1, with “AT1/HEK293;” for “ETa/HEK293;”, “F12,” for “DMEM,”, “#11765-047); FBS, Corning (Cat #35-076-CV);” for “#11960);”
For the agonist (angiotensin II) master plate, the agonist solution was diluted from 1 mM to 200 μM with the test buffer solution. […] Afterwards, 900 nL of each compound solution was transferred to the master plate and 30 μL of the test buffer solution was added. • a) The cell plate was removed from the incubator, and 20 μL of 2X Fluo-4 Direct was added by a pipette to a 384-well cell plate. • b) The cell plate was incubated at 37° C. for 50 min in the environment of 5% CO2, and then incubated at room temperature for 10 min. • c) The cell plate was removed from the incubator and placed in FLIPR. The compound plates and the tip box were placed in FLIPR. • d) Regarding the EC80 plate: • 1) Operations were conducted on […]. • 2) 10 μL of compound solution was transferred from the EC80 master plate to the cell plate. • 3) Fluorescence signals were read. • 4) The read signals were counted, and the EC80 value of each cell line was calculated using FLIPR. • 5) For the concentration of the compound plate, a solution having a concentration 6 times that of the reference agonist EC80 was formulated. • e) Regarding the compound plate: • 1) Operations were conducted on […]. • 2) 10 μL of compound was transferred to the cell plate. • 3) Fluorescence signals were read. • 4) 10 μL of solution having a concentration 6 times that of the reference agonist EC80 was transferred. • 5) Fluorescence signals were read. • f) Data analysis by Prism

[3] = Experiment on water solubility (HPLC-UV); type: physicochemical
Procedure: The detection was carried out in accordance with the high performance liquid chromatography (General Principles 0512 of Chinese Pharmacopoeia Volume IV (2020)):
Chromatographic conditions for the HPLC-UV method: mobile phase: 0.02 M KH2PO4 aqueous solution-acetonitrile (90:10), gradient elution; chromatographic column: C18; detection wavelength: 210 nm. The water solubility was calculated based on the peak area by the external standard method.

ETa, sequence (P25101 21-427): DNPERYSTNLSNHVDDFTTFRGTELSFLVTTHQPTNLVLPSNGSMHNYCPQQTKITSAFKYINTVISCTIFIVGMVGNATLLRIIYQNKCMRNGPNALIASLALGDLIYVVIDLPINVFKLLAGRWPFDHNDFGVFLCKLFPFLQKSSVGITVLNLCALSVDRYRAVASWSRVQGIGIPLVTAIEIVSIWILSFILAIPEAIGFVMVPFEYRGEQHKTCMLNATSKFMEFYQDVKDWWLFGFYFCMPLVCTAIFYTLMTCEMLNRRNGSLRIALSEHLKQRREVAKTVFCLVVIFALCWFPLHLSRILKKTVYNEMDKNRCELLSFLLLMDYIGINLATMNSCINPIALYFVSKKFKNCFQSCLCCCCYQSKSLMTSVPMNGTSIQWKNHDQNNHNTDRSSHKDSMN

| Compound | IC50 ([1]; read-out: IC50 against ETa) | IC50 ([2]; read-out: IC50 against AT1) | solubility ([3]; aqueous medium at pH 7.4 (buffer not named), pH 7.4, aqueous buffer, pH7.4, read-out: Solubility pH7.4) | solubility ([3]; pH 1.6, fassgf or other biorelevant, FaSSGF (pH1.6), read-out: Solubility FaSSGF (pH1.6)) | solubility ([3]; pH 5, FeSSIF (pH5.0), read-out: Solubility FeSSIF (pH5.0)) | solubility ([3]; pH 6.5, FaSSIF (pH6.5), read-out: Solubility FaSSIF (pH6.5)) | IC50 ([2]; read-out: IC50 activity against AT1 (class)) | IC50 ([1]; read-out: IC50 activity against ETa (class)) |
| --- | --- | --- | --- | --- | --- | --- | --- | --- |
| CCCCC1=N[C@]2(C[C@H]3C[C@H]3C2)C(=O)N1Cc1ccc(-c2ccccc2S(=O)(=O)Nc2noc(C)c2C)c(CN(C)C(=O)CC(C)(C)C)c1 [Example 6] | 17.6 nM | 258 nM | – | – | – | – | – | – |
| CCCCC1=NC2(CC3(CC3)C2)C(=O)N1Cc1ccc(-c2ccccc2S(=O)(=O)Nc2noc(C)c2C)c(COCC)c1 [Example 1] | 24.6 nM | 2.9 nM | 370 µg/mL (≈ 612 µM) | > 1000 µg/mL | 200 µg/mL (≈ 331 µM) | 610 µg/mL (≈ 1010 µM) | – | – |
| CCCCC1=N[C@]2(C[C@H]3C[C@H]3C2)C(=O)N1Cc1ccc(-c2ccccc2S(=O)(=O)Nc2noc(C)c2C)c(COCC)c1 [Example 4] | 132 nM | 4.78 nM | – | – | – | – | 1 to 10 nM | – |
| CC(C)C[C@@H]1NC(=O)[C@@H](C(C)C)NC(=O)[C@@H]2CCCN2C(=O)[C@@H](CC(=O)O)NC(=O)[C@@H](Cc2c[nH]c3ccccc23)NC1=O [BQ123, reference compound] (HELM PEPTIDE1{L.[dW].[dD].P.[dV]}$PEPTIDE1,PEPTIDE1,1:R1-5:R2$$$V2.0) | 2.56 nM | – | – | – | – | – | – | 1 to 10 nM |
